Reference: US20030198617A1, “Pharmaceutical tryptophan containing dipeptide compositions and methods of use thereof” (priority 1993, published 2003)
Marks after values point to notes of the source that are not given here.

Test: Chronic pyoderma (staphylococcal skin diseases), clinical and immunological testing
[1] = Abscessing and indurative comedones
[2] = after IM862, phagocytosis with staph. cells
[3] = after treatment with IM862 (Table 21)

Question: Which results are given for Glu-Trp [IM862]?
Answer: Considerable Improvement, number of patients [1]: 1; Recovery, number of patients [1]: 4; improvement, number of patients [1]: 1; Considerable Improvement, number of patients (Chronic abscessing pyoderma): 2; Recovery, number of patients (Chronic abscessing pyoderma): 5; Recovery, number of patients (Chronic furunculosis): 10; Recovery, number of patients (Chronic recurring folliculitis-deep): 1; Recovery, number of patients (Chronic recurring osteofolliculitis): 3; Considerable Improvement, number of patients (Chronic ulcerative pyoderma): 2; Considerable Improvement, number of patients (Papulous-pustulous comedones): 3; Recovery, number of patients (Papulous-pustulous comedones): 4; Considerable Improvement, number of patients (Total number of patients): 8; improvement, number of patients (Total number of patients): 1; Recovery, number of patients (Total number of patients (36 resistant to standard therapy)): 27; CIC units (after IM862): 45.9 ± 4.9 units; Cathion proteins MCC × 10^9/l (after IM862): 1.46 ± 0.05^y; Etr-RFC/Ets-RFC (after IM862): 5.32 ± 1.00; LMIF with ConA % (after IM862): 58.3 ± 3.9^yy %; LMIF with HSA % (after IM862): 84.9 ± 5.5^yy %; LMIF with PHA % (after IM862): 40.2 ± 3.9^y %; Lymphocytes % (after IM862): 30.8 ± 1.4%; Lymphocytes ×10^9/l (after IM862): 2.41 ± 0.14 ×10^9/l; Monocytes × 10^9/l (after IM862): 0.43 ± 0.04 × 10^9/l; NK-activity (CI) % (after IM862): 45.18 ± 2.55^y %; Neutrophils En-RFC % (after IM862): 14.7 ± 1.6%; Neutrophils En-RFC × 10^9/l (after IM862): 0.7 ± 0.11 × 10^9/l; Neutrophils × 10^9/l (after IM862): 4.54 ± 0.25 × 10^9/l; Phagocytic index % × 10^9/l (after IM862): 5.31 ± 0.20^y; T4/T8 (after IM862): 1.32 ± 011^y^; T-helpers Etr-RFC % (after IM862): 51.7 ± 2.8^y %; T-helpers Etr-RFC ×10^9/l (after IM862): 1.28 ± 0.09^y ×10^9/l; T-helpers OKT4^+ % (after IM862): 20.3 ± 2.9%; T-helpers OKT4^+ ×10^9/l (after IM862): 0.46 ± 0.05^y ×10^9/l; T-lymphocytes E-RFC % (after IM862): 69.3 ± 1.9^y %; T-lymphocytes E-RFC ×10^9/l (after IM862): 1.68 ± 0.12^y ×10^9/l; T-suppressors Etr-RFC % (after IM862): 17.9 ± 2.4%; T-suppressors Etr-RFC ×10^9/l (after IM862): 0.45 ± 0.08 ×10^9/l; T-suppressors OKT8 % (after IM862): 17.1 ± 1.9%; T-suppressors OKT8 ×10^9/l (after IM862): 0.39 ± 0.04 ×10^9/l; Leukocytes ×10^9/l (after IM862 (Table 22)): 7.75 ± 0.33 ×10^9/l; Monocytes % (after IM862 (Table 24)): 5.65 ± 0.40%; Neutrophils % (after IM862 (Table 24)): 59.8 ± 1.6%; Phagocytic activity* % [2]: 48.9 ± 2.8%; Phagocytic activity* × 10^9/l [2]: 2.36 ± 0.27 × 10^9/l; B-lymphocytes (IgA^+) % (after treatment with IM862): 2.4 ± 0.3%; B-lymphocytes (IgA^+) ×10^9/l (after treatment with IM862): 0.06 ± 0.008 ×10^9/l; B-lymphocytes (IgG^+) % (after treatment with IM862): 14.7 ± 2.16%; B-lymphocytes (IgG^+) ×10^9/l (after treatment with IM862): 0.19 ± 0.023^y ×10^9/l; B-lymphocytes (IgM^+) % (after treatment with IM862): 4.4 ± 0.6%; B-lymphocytes (IgM^+) ×10^9/l (after treatment with IM862): 0.10 ± 0.01 ×10^9/l; B-lymphocytes (Ig^+) % (after treatment with IM862): 16.9 ± 1.7%; B-lymphocytes (Ig^+) ×10^9/l (after treatment with IM862): 0.34 ± 0.05 ×10^9/l; B-lymphocytes Em-RFC % (after treatment with IM862): 12.1 ± 1.5%; B-lymphocytes Em-RFC ×10^9/l (after treatment with IM862): 0.28 ± 0.04 ×10^9/l; Bacilli/nuclei % (after treatment with IM862): 3.8 ± 0.6%; Basophils % (after treatment with IM862): 0.1 ± 0.1%; Body temperature (morning) (after treatment with IM862): 36.2 ± 0.1; ESP, mm/hr (after treatment with IM862): 11.2 ± 1.4 mm/hr; Erythrocytes ×10^12/l (after treatment with IM862): 5.2 ± 0.6 ×10^12/l; IgA (after treatment with IM862): 2.40 ± 0.18 g/L; IgG (after treatment with IM862): 15.5 ± 0.73 g/L; IgM (after treatment with IM862): 1.25 ± 0.12 g/L; Segm./nuclei % (after treatment with IM862): 61.9 ± 1.4%; Leukocytes ×10^9/l [3]: 7.75 ± 0.36 ×10^9/l; Monocytes % [3]: 5.7 ± 0.4%; Neutrophils % [3]: 59.8 ± 1.6%; side effects / tolerance (intranasally 100 μg daily, 5 days): No side effects from its use were noted in any of the patients; relapses, number of patients (observation for 6 months after discharge): 3 patients
